Patent publication US20060004195A1, “Alpha,beta-unsaturated esters and acids by stereoselective dehydration” (priority 2004, published 2006)

SMILES: O=C(O)/C(=C\c1cc(-c2ccc3c(c2)OCO3)n(-c2cc(Cl)ccc2Cl)n1)c1cccc(Cl)c1 [Example 606, (Z)-3-[5-Benzo[1,3]dioxol-5-yl-1-(2,5-dichloro-phenyl)-1H-pyrazol-3-yl]-2-(3-chloro-phenyl)-acrylic acid]
- melting point: 174 °C

SMILES: COc1ccc(-n2nc(C[C@H](C(=O)[O-])c3cccc(C)c3)cc2-c2ccc(Cl)c(Cl)c2)cc1.[Na+] (stereo in doubt)
- melting point: 295.5 to 297.5 °C
